{"source": "patent US4000281A", "about": "“Pyrazole derivatives” (priority 1971, dated 1976)", "test_system": "rhinovirus type 6 (SF1349)", "test": "Inhibition of rhinovirus cytopathogenic effect in human embryonic lung cultures, type 6", "assay_type": "cell-based", "details": "50 and 75 μgm/ml", "description": "Other tests were carried out to determine the inhibitory effect of 3-(4-pyridyl)-4-(2-hydroxyphenyl)-5-ethylpyrazole on various types of rhinovirus.\nIn each test two cultures of human embryonic lung were prepared of which one was treated with the above compound while the other served as control. The cultures were then infected with a strain of rhinovirus. The compound was used in concentrations of 50 and 75 μgm/ml and was considered to be active if the cytopathogenic effect of the rhinovirus was reduced by at least 75% as compared to the control culture. This cytopathogenic effect was determined by counting the number of plaques formed by destroyed cells.\nSeven human types of rhinovirus were employed and the following results registered: […]"}
{"molecule": "CCc1[nH]nc(-c2ccncc2)c1-c1ccccc1O", "note": "[Compound A, 3-(4-pyridyl)-4-(2-hydroxyphenyl)-5-ethylpyrazole]", "values": [{"measurement": "ACTIVITY", "value": "+ (active)"}]}
